From paper doi:10.1101/2021.05.17.444542v1, “Structure Activity Relationship of USP5 Allosteric Inhibitors” (biorxiv, 2021)

The molecules below were run against T1, USP5 ZnF-UBD (USP5 171-290) (Homo sapiens, UniProt P45974). Settings: FITC-ubiquitin displacement, N=1; 100 µM; inhibitor.
T1 sequence (P45974 171-290): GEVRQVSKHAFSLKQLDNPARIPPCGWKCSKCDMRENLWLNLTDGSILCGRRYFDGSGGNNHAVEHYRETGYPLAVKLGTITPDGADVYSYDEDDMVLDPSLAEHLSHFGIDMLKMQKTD

SMILES	% inhibition [%]
O=C(O)CCC(=O)c1cccc(NS(=O)(=O)c2c[nH]c3ncccc23)c1 [S1]	40
Cc1ccc(C(=O)O)cc1S(=O)(=O)Nc1cccc(C(=O)CCC(=O)O)c1 [S2]	36
CC(CC(=O)c1cccc(-c2ccc3c(c2)CCCO3)c1)C(=O)O (stereo not drawn) [S3]	31
CN(c1ccc(S(C)(=O)=O)cc1)S(=O)(=O)c1ccc(C(=O)CCC(=O)O)cc1 [S4]	61
O=C(O)CCC(=O)c1cccc(NS(=O)(=O)c2c[nH]c(C(=O)N3CCCC3)c2)c1 [S5]	50
O=C(O)CCC(=O)c1cccc(NS(=O)(=O)c2cc(F)cc(C(=O)O)c2)c1 [S6]	3

Further lines, results first:

% inhibition [%]	SMILES
32	CCCn1nc(C)c(-c2ccc(OC)c(C(=O)CCC(=O)O)c2)c1C [S7]
37	Cc1ccc(OC(C)CNS(=O)(=O)c2ccc(C(=O)CCC(=O)O)cc2)cc1 (stereo not drawn) [S8]
26	O=C(O)CCC(=O)c1cccc(NS(=O)(=O)c2ccc(Cl)c(C(=O)O)c2)c1 [S9]
